These results are taken from the supplement of paper PMC10011410.

The subject of test [1] is U-2 OS. Nature of the test: cell painting activity score (Mahalanobis distance from DMSO wells); higher = stronger morphological phenotype. The settings on record: 24 h. The procedure:
(§1)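 Cell painting in U-2 OS cells (384-well, about 1,500 cells per well), compound exposure 24 h, usually six 2-fold concentrations from 20 to 0.625 uM (some compounds higher or lower). Relative cell count is the cell number per well relative to DMSO wells. Activity score is the Mahalanobis distance of the morphological profile from DMSO control wells. Mean of four technical replicate plates.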

In test [2] the test system is U-2 OS. Nature of the test: relative cell count vs DMSO (cell painting) (fraction of DMSO control); higher = more cells remaining (less cytotoxic). The note with it: 24 h. The procedure: as §1

Take `COC1=C(OC)C(=O)c2ccccc2C1=O`: the “cell painting activity score” value in test [1] (0.625 µM) is 7.97; in test [1] (1.25 µM), 8.63; in test [1] (2.5 µM), 10.7; in test [1] (5 µM), 18.9; in test [1] (10 µM), 21.2; in test [1] (20 µM), 24.7. For the same compound, the relative cell count in test [2] (0.625 µM) was 0.99; in test [2] (1.25 µM), 0.895; in test [2] (2.5 µM), 0.81; in test [2] (5 µM) it was 0.489; in test [2] (10 µM), 0.46; in test [2] (20 µM), 0.149.

In the case of `[Cl][Pt+2][Cl].[NH2-].[NH2-]`, the “cell painting activity score” value in test [1] (0.2062 µM) came to 5.52; in test [1] (0.4124 µM) it was 4.94; in test [1] (0.825 µM), 3.93; in test [1] (1.65 µM) it was 5.77; in test [1] (3.3 µM), 3.26; in test [1] (6.6 µM), 9.14. For the same compound, the relative cell count in test [2] (0.2062 µM) is 0.954; in test [2] (0.4124 µM) it was 0.964; in test [2] (0.825 µM), 0.902; in test [2] (1.65 µM), 0.701; in test [2] (3.3 µM) it was 0.937; in test [2] (6.6 µM), 0.666.

`CCN(CC)CCCC(C)Nc1ccnc2cc(Cl)ccc12` (stereo unspecified): the “cell painting activity score” value came to 4.84 in test [1] (0.625 µM); 5.94 in test [1] (1.25 µM); 4.8 in test [1] (2.5 µM); 4.43 in test [1] (5 µM); 4.73 in test [1] (10 µM); 6.72 in test [1] (20 µM). Also, the relative cell count in test [2] (0.625 µM) came to 1.2; in test [2] (1.25 µM), 1.12; in test [2] (2.5 µM), 1.09; in test [2] (5 µM), 1.19; in test [2] (10 µM), 1.08; in test [2] (20 µM), 1.09.

On to `CCN(CC)CCNC(=O)c1c(C)[nH]c(/C=C2\C(=O)Nc3ccc(F)cc32)c1C`, for which the “cell painting activity score” value in test [1] (0.625 µM) is 11.2; in test [1] (1.25 µM) it was 11.5; in test [1] (2.5 µM), 11.3; in test [1] (5 µM), 12.4; in test [1] (10 µM), 14.5; in test [1] (20 µM) it was 25.1. For the same compound, the relative cell count in test [2] (0.625 µM) is 0.983; in test [2] (1.25 µM) it was 0.945; in test [2] (2.5 µM), 0.983; in test [2] (5 µM), 0.917; in test [2] (10 µM), 0.831; in test [2] (20 µM) it was 0.503.

In the case of `COS(=O)(=O)O.C[n+]1c2ccccc2nc2ccccc21`, the “cell painting activity score” value in test [1] (0.625 µM) worked out at 4.8; in test [1] (1.25 µM) it was 5.06; in test [1] (2.5 µM), 9.91; in test [1] (5 µM), 14.3; in test [1] (10 µM), 19.6; in test [1] (20 µM) it was 23.1. Further, the relative cell count amounted to 0.956 in test [2] (0.625 µM); 0.92 in test [2] (1.25 µM); 0.807 in test [2] (2.5 µM); 0.265 in test [2] (5 µM); 0.282 in test [2] (10 µM); 0.0549 in test [2] (20 µM).

`O=C(Nc1ccc([N+](=O)[O-])cc1Cl)c1cc(Cl)ccc1O`: the “cell painting activity score” value was found to be 5.54 in test [1] (0.625 µM); 8.61 in test [1] (1.25 µM); 10.3 in test [1] (2.5 µM); 16 in test [1] (5 µM); 17.7 in test [1] (10 µM); 14.8 in test [1] (20 µM). Also, the relative cell count in test [2] (0.625 µM) turned out to be 1.13; in test [2] (1.25 µM), 1.05; in test [2] (2.5 µM), 1.06; in test [2] (5 µM), 0.922; in test [2] (10 µM), 0.808; in test [2] (20 µM) it was 0.753.

As for `COc1c(O)c2c(=O)cc3c4c5c(cc(=O)c6c(O)c(OC)c(CC(C)O)c(c(c1CC(C)O)c24)c65)OCO3` (stereo unspecified), the “cell painting activity score” value in test [1] (0.625 µM) was found to be 4.68; in test [1] (1.25 µM), 7.7; in test [1] (2.5 µM), 10.5; in test [1] (5 µM), 13; in test [1] (10 µM) it was 12; in test [1] (20 µM), 13.9. The relative cell count worked out at 0.971 in test [2] (0.625 µM); 0.918 in test [2] (1.25 µM); 0.859 in test [2] (2.5 µM); 0.682 in test [2] (5 µM); 0.499 in test [2] (10 µM); 0.366 in test [2] (20 µM).

For `CCN1C(=O)C=CC1=O`, the “cell painting activity score” value in test [1] (0.625 µM) amounted to 4.77; in test [1] (1.25 µM) it was 5.69; in test [1] (2.5 µM) it was 7.04; in test [1] (5 µM) it was 9.18; in test [1] (10 µM), 20.6; in test [1] (20 µM), 26.6. Moreover, the “cell painting activity score” value was 5.94 in test [1] (40 µM) and 6.33 in test [1] (80 µM). The relative cell count in test [2] (0.625 µM) is 0.938; in test [2] (1.25 µM), 0.928; in test [2] (2.5 µM), 0.891; in test [2] (5 µM), 0.724; in test [2] (10 µM), 0.254; in test [2] (20 µM) it was 0.0684. Also, the relative cell count was determined as 0.911 in test [2] (40 µM) and 0.885 in test [2] (80 µM).

Take `CC(C)(C)C1=CC(=O)C=CC1=O`: the “cell painting activity score” value in test [1] (0.625 µM) worked out at 8.46; in test [1] (1.25 µM) it was 9.82; in test [1] (2.5 µM), 11.5; in test [1] (5 µM), 13.4; in test [1] (10 µM), 20.3; in test [1] (20 µM), 17.6. Moreover, the relative cell count is 0.952 in test [2] (0.625 µM); 0.904 in test [2] (1.25 µM); 0.867 in test [2] (2.5 µM); 0.435 in test [2] (5 µM); 0.32 in test [2] (10 µM); 0.124 in test [2] (20 µM).

As for `O=C([O-])C(=O)[O-].[NH-][C@@H]1CCCC[C@H]1[NH-].[Pt+4]`, the “cell painting activity score” value worked out at 4.3 in test [1] (0.625 µM); 8.95 in test [1] (1.25 µM); 20.4 in test [1] (2.5 µM); 20 in test [1] (5 µM); 19.8 in test [1] (10 µM); 22.1 in test [1] (20 µM). For the same compound, the relative cell count in test [2] (0.625 µM) was 0.86; in test [2] (1.25 µM), 0.786; in test [2] (2.5 µM) it was 0.66; in test [2] (5 µM), 0.501; in test [2] (10 µM), 0.35; in test [2] (20 µM), 0.203.

As for `O=C1Cc2c([nH]c3ccc(Br)cc23)-c2ccccc2N1`, the “cell painting activity score” value in test [1] (0.625 µM) was found to be 7.76; in test [1] (1.25 µM), 10.8; in test [1] (2.5 µM), 12.7; in test [1] (5 µM), 13.7; in test [1] (10 µM), 14.7; in test [1] (20 µM) it was 13.6. The relative cell count was found to be 0.977 in test [2] (0.625 µM); 0.959 in test [2] (1.25 µM); 0.911 in test [2] (2.5 µM); 0.835 in test [2] (5 µM); 0.557 in test [2] (10 µM); 0.164 in test [2] (20 µM).
